Measured values reported in the NIST ThermoML archive (doi:10.1021/je200111a).
± gives the expanded uncertainty stated by the source.

Columns and labels:
[1] = Liquid; for mass density: 298.15 K, 101.33 kPa; for vapor or sublimation pressure: Ebulliometric method (Recirculating still)
[2] = refractive index (Na D-line) (dimensionless); settings: 298.15 K; 101.33 kPa; Liquid; Standard Abbe refractometry

Structure (SMILES)	mass density [1]	vapor or sublimation pressure ([1]; 358.35 K)	vapor or sublimation pressure ([1]; 411.05 K)	refractive index [2]	vapor or sublimation pressure ([1]; 353.75 K)	vapor or sublimation pressure ([1]; 403.75 K)	vapor or sublimation pressure ([1]; 366.55 K)	vapor or sublimation pressure ([1]; 366.65 K)	vapor or sublimation pressure ([1]; 427.62 K)	vapor or sublimation pressure ([1]; 427.65 K)
CCCCCO [pentan-1-ol]	811.2 ± 0.4 kg/m3	13 ± 0.17 kPa	101.3 ± 1.8 kPa	1.4077 ± 0.0007	–	–	–	–	–	–
CC(C)CCO [3-methylbutan-1-ol]	807.6 ± 0.4 kg/m3	–	–	1.4051 ± 0.0007	13 ± 0.16 kPa	101.3 ± 1.7 kPa	–	–	–	–
CCOC(=O)[C@H](C)O [(S)-(-)-ethyl lactate]	1028.6 ± 0.2 kg/m3	–	–	1.41057 ± 0.00072	–	–	13 ± 0.2 kPa	13 ± 0.2 kPa	101.3 ± 2 kPa	101.3 ± 2 kPa
